Laboratory results reported in ChEMBL document CHEMBL5523770 (J Med Chem, 2024).

What was measured:
[1] = biological target: T1, Nuclear receptor subfamily 1 group I member 3 (Homo sapiens, UniProt Q14994); assay: Inverse agonist activity at human CAR transfected in HEK293T cells incubated for 16 hrs by firefly/renilla based Dual-Glo luciferase assay; assay type: cell-based
T1 sequence (Q14994 whole entry): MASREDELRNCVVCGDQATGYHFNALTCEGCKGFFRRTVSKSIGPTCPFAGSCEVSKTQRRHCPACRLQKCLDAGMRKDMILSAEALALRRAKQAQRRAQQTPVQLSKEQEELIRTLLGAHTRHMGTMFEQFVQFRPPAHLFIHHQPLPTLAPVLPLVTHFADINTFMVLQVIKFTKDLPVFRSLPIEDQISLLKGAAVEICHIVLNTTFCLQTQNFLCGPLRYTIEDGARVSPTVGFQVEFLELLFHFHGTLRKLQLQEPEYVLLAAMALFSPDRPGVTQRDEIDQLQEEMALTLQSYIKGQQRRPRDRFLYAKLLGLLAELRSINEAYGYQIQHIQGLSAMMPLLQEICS

[2] = biological target: Nuclear receptor subfamily 4 group A member 3 (Homo sapiens, UniProt Q92570); assay: Inverse agonist activity at human NOR-1 (393 to 626 residues) transfected in HEK293T cells incubated for 16 hrs by firefly/renilla based Dual-Glo luciferase assay; assay type: cell-based
Sequence of Nuclear receptor subfamily 4 group A member 3 (Q92570 whole entry, the tested form may be a part): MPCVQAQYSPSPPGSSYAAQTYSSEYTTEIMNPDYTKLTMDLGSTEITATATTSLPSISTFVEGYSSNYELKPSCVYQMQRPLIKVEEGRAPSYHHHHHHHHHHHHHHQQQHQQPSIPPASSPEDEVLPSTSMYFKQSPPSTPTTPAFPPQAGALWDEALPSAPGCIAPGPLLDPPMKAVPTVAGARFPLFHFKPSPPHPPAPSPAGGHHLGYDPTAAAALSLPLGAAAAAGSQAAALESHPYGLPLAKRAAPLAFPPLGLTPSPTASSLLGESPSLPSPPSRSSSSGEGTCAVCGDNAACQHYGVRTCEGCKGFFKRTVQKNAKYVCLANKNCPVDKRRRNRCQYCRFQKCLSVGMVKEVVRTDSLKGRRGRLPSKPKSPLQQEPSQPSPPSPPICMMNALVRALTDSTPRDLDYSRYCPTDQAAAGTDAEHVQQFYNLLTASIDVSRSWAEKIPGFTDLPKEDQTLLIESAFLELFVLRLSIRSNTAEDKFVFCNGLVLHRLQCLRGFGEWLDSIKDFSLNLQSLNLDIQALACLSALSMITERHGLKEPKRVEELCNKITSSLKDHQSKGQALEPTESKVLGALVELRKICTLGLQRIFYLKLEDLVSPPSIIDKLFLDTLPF

[3] = biological target: T2, Nuclear receptor subfamily 1 group I member 2 (Homo sapiens, UniProt O75469); assay: Inverse agonist activity at human PXR transfected in HEK293T cells incubated for 16 hrs by firefly/renilla based Dual-Glo luciferase assay; assay type: cell-based
T2 sequence (O75469 whole entry): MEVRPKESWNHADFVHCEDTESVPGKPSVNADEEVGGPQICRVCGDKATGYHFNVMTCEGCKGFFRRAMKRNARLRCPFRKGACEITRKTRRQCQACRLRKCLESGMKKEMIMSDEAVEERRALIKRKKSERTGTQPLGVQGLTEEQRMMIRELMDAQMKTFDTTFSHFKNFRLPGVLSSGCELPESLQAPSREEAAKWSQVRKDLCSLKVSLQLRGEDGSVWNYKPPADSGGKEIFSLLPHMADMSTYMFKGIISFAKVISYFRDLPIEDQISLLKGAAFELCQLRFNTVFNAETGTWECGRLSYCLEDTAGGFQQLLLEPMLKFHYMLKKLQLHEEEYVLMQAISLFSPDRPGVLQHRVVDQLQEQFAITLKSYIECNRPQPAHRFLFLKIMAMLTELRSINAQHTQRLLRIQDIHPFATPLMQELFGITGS

in vitro = settings: male, Sprague-Dawley, rat, liver microsomes
[4] = biological target: Nuclear receptor subfamily 4 group A member 2 (Homo sapiens, UniProt P43354); assay: Inverse agonist activity at Gal4-fused human […] Nurr1 LBD transfected in HEK293T cells assessed as suppression of Nurr1 activation incubated for 16 hrs by firefly/renilla based Dual-Glo luciferase assay; assay type: cell-based
Sequence of Nuclear receptor subfamily 4 group A member 2 (P43354 whole entry, the tested form may be a part): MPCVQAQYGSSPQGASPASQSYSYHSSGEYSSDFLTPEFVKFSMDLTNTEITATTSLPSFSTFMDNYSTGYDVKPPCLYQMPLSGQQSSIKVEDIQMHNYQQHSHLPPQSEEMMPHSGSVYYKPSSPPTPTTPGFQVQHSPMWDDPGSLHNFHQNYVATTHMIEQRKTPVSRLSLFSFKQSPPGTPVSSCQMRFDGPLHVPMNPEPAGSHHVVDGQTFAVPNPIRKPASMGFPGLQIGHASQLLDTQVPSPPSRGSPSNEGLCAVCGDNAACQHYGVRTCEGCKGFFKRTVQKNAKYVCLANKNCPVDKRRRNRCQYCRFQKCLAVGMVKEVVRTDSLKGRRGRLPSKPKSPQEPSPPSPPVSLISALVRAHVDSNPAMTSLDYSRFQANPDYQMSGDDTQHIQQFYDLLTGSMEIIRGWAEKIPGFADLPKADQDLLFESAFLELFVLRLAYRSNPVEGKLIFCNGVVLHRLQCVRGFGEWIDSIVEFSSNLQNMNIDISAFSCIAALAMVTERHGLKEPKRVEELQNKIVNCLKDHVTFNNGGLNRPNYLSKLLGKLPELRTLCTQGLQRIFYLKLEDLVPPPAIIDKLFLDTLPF

SMILES	IC50 [2] [µM]	Activity [3]	half-life at 1 h, 10 µM (in vitro) [min]	also measured
CN(C)C(=O)CCc1nc(-c2ccccc2)c(-c2ccccc2Cl)o1	29	Active		Activity [1]: Active
CN(C)C(=O)/C=C/c1nc(-c2ccccc2)c(-c2ccccc2)o1			30	
Cc1cccc(-c2oc(CCC(=O)O)nc2-c2ccccc2)c1				IC50 [4]: > 50 µM
O=C(O)/C=C/c1nc(-c2ccccc2)c(-c2ccccc2)o1	3.8	Active		
CC(C)NCC(O)COc1cccc2ccccc12 (stereo not drawn) [PROPRANOLOL]			64	
